Data on 30 molecules can be found in patent publication US7994209B2, “3-phenoxymethylpyrrolidine compounds” (Theravance, Inc., priority 2009, dated 2011).

What is called Ki is the equilibrium dissociation constant of an inhibitor or competing ligand from its target. A low value points to higher affinity.

Molecules are shown by their SMILES.

Test [1] has as its target hSERT (Homo sapiens, UniProt P31645). The test can be described thus: hSERT membrane radioligand binding assay (3H-citalopram), Assay 1. Conditions: SERT pKi, hSERT HEK-293 membranes, 1.0 nM 3H-citalopram; values given as lower bounds.
For test [2], the target named is hNET (Homo sapiens, UniProt P23975). The test can be described thus: hNET membrane radioligand binding assay (3H-nisoxetine), Assay 1.
Sequence of hNET (P23975 whole entry): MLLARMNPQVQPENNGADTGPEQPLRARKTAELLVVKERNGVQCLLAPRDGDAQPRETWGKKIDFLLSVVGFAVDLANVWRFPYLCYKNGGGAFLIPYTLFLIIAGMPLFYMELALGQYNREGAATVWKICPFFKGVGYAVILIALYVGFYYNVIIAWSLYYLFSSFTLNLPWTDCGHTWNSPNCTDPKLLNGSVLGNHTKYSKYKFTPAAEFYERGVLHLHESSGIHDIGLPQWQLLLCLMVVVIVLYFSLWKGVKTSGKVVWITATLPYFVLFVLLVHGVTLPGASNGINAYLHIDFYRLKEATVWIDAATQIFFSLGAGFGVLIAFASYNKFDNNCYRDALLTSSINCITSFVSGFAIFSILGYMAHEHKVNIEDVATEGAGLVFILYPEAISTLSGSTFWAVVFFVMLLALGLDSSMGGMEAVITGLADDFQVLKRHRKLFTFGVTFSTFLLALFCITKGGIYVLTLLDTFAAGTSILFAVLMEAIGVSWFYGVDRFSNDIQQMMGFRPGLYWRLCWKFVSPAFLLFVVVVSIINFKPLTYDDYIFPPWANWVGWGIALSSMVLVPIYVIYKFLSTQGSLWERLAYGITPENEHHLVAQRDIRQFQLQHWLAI

Sequence of hSERT (P31645 whole entry): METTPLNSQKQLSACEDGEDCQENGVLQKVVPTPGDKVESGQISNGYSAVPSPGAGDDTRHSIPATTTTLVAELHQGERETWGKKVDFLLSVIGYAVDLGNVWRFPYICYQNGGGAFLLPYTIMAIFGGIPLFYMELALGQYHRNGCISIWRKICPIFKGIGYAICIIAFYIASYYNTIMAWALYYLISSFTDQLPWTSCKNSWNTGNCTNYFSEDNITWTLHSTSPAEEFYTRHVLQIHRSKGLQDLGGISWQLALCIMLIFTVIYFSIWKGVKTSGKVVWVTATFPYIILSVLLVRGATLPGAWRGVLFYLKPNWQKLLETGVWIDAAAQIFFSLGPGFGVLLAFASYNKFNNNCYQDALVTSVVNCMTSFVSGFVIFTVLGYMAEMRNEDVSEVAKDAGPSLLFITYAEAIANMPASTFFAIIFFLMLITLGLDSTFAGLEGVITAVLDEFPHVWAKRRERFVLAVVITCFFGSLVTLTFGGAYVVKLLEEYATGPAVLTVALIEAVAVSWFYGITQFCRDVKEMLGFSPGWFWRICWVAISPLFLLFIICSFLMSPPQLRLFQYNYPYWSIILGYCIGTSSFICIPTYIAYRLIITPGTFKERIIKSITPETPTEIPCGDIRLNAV

In the case of `CCC[C@H](Oc1c(Cl)cccc1Cl)[C@@H]1CCNC1` [Example 4-35, (R)-3-[(S)-1-(2,6-Dichlorophenoxy)butyl]pyrrolidine], the inhibition constant (Ki) in test [1] and in test [2] was no more than 100 nM in each case.
Regarding `Clc1ccc(O[C@@H](C2CC2)[C@H]2CCNC2)c(C2CCCCC2)c1` [Example 16-43, (S)-3-[(S)-(4-Chloro-2-cyclohexylphenoxy)cyclopropylmethyl]pyrrolidine], the inhibitory constant (Ki) was no more than 100 nM in test [1] and no more than 10 nM in test [2].
In the case of `CC(=O)c1ccccc1O[C@@H](C1CCCCC1)[C@@H]1CCNC1` [Example 20-4, 1-[2-((R)-Cyclohexyl-(S)-pyrrolidin-3-yl-methoxy)phenyl]ethanone], the Ki was no more than 100 nM in test [1] and no more than 10 nM in test [2].
For the molecule `Cc1ccc(O[C@H](C2CC2)[C@@H]2CCNC2)c(Br)c1` [Example 16-26, (R)-3-[(R)-(2-Bromo-4-methylphenoxy)cyclopropylmethyl]pyrrolidine], the Ki in test [1] was no more than 10 nM; in test [2], no more than 100 nM.
For `Clc1cccc(O[C@@H](C2CC2)[C@@H]2CCNC2)c1Cl` [Example 16-6, (R)-3-[(S)cyclopropyl-(2,3-dichlorophenoxy)methyl]pyrrolidine], the Ki is no more than 10 nM in test [1] and no more than 100 nM in test [2].
On the same counts, the results for `CC[C@@H](Oc1ccccc1C)[C@H]1CCNC1` [Example 2-63, (S)-3-((R)-1-o-Tolyloxypropyl)pyrrolidine] are no more than 100 nM and no more than 100 nM.
In the case of `Cc1cc(O[C@@H](C2CC2)[C@H]2CCNC2)c(Cl)c(C)c1Cl` [Example 16-83, (S)-3-[(S)cyclopropyl-(2,4-dichloro-3,5-dimethylphenoxy)-methyl]pyrrolidine], the Ki was no more than 10 nM in test [1] and no more than 100 nM in test [2].
On the same counts, the results for `Fc1cccc(O[C@H](C2CCCCC2)[C@H]2CCNC2)c1` [Example 20-7, (S)-3-[(R)-Cyclohexyl-(3-fluorophenoxy)methyl]pyrrolidine] are no more than 100 nM and no more than 10 nM.
As to `CCC[C@H](Oc1ccc(Cl)cc1Cl)[C@@H]1CCNC1` [Example 4-30, (R)-3-[(S)-1-(2,4-Dichlorophenoxy)butyl]pyrrolidine], the Ki was no more than 10 nM in test [1] and no more than 100 nM in test [2].
`CC(C)[C@@H](Oc1ccc(Cl)cc1C(F)(F)F)[C@H]1CCNC1` [Example 6-52, (S)-3-[(R)-1-(4-Chloro-2-trifluoromethylphenoxy)-2-methylpropyl]pyrrolidine]: the inhibition constant Ki in test [1] and in test [2] was no more than 100 nM throughout.
As to `CCC[C@@H](Oc1ccc(Cl)cc1)[C@@H]1CCNC1` [Example 4-4, (R)-3-[(R)-1-(4-Chlorophenoxy)butyl]pyrrolidine], the Ki was no more than 10 nM in test [1] and no more than 100 nM in test [2].
Consider `CCC[C@@H](Oc1ccc(Cl)cc1C(F)(F)F)[C@@H]1CCNC1` [Example 4-67, (R)-3-[(R)-1-(4-Chloro-2-trifluoromethylphenoxy)butyl]pyrrolidine], for which the Ki was no more than 10 nM in test [1] and no more than 100 nM in test [2].
Regarding `CCCC[C@@H](Oc1ccc(Cl)cc1Cl)[C@H]1CCNC1` [Example 8-8, (S)-3-[(R)-1-(2,4-Dichlorophenoxy)pentyl]pyrrolidine], the Ki in test [1] and in test [2] was no more than 10 nM each time.
Consider `CCC[C@@H](Oc1ccc(Cl)cc1Cl)[C@@H]1CCNC1` [Example 4-31, (R)-3-[(R)-1-(2,4-Dichlorophenoxy)butyl]pyrrolidine], for which the Ki was no more than 10 nM in test [1] and no more than 100 nM in test [2].
Consider `CC[C@H](Oc1ccc(Cl)cc1C)[C@@H]1CCNC1` [Example 2-61, (R)-3-[(S)-1-(4-Chloro-2-methylphenoxy)propyl]pyrrolidine], for which the inhibition constant (Ki) is no more than 10 nM in test [1] and no more than 100 nM in test [2].
On the same counts, the results for `CC[C@H](Oc1cccc(Cl)c1Cl)[C@@H]1CCNC1` [Example 2-30, (R)-3-[(S)-1-(2,3-Dichlorophenoxy)propyl]pyrrolidine] are no more than 10 nM and no more than 100 nM.
For `CCC[C@H](Oc1cccc(Cl)c1C)[C@@H]1CCNC1` [Example 4-56, (R)-3-[(S)-1-(3-Chloro-2-methylphenoxy)butyl]pyrrolidine], the Ki in test [1] is no more than 10 nM; in test [2], no more than 100 nM.
On the same counts, the results for `CC(C)C(Oc1cccc(C(F)(F)F)c1)C1CCNC1` (stereo not drawn) [Example 6-72, 3-[2-Methyl-1-(3-trifluoromethylphenoxy)-propyl]pyrrolidine] are no more than 10 nM and no more than 100 nM.
Turning to `CCC[C@H](Oc1cccc(Cl)c1C(F)(F)F)[C@H]1CCNC1` [Example 4-68, (S)-3-[(S)-1-(3-Chloro-2-trifluoromethylphenoxy)butyl]pyrrolidine], the inhibitory constant (Ki) in test [1] and in test [2] was no more than 10 nM throughout.
As to `CCC[C@@H](Oc1ccc(Cl)cc1C(F)(F)F)[C@H]1CCNC1` [Example 4-65, (S)-3-[(R)-1-(4-Chloro-2-trifluoromethylphenoxy)butyl]pyrrolidine], the Ki in test [1] and in test [2] was no more than 100 nM throughout.
Take `CC[C@@H](Oc1cc(F)cc(F)c1Cl)[C@H]1CCNC1` [Example 2-36, (S)-3-[(R)-1-(2-Chloro-3,5-difluorophenoxy)propyl]pyrrolidine]: the Ki in test [1] and in test [2] was no more than 100 nM each time.
For `CCCC[C@@H](Oc1ccc(Cl)cc1C)[C@H]1CCNC1` [Example 8-10, (S)-3-[(R)-1-(4-Chloro-2-methylphenoxy)pentyl]pyrrolidine], the inhibition constant Ki in test [1] and in test [2] was no more than 10 nM in each case.
For the molecule `CCCC[C@@H](Oc1cccc(Cl)c1C)[C@H]1CCNC1` [Example 8-7, (S)-3-[(R)-1-(3-Chloro-2-methylphenoxy)pentyl]pyrrolidine], the inhibitory constant (Ki) in test [1] and in test [2] was no more than 10 nM each time.
Regarding `CC(C)[C@H](Oc1ccccc1F)[C@H]1CCNC1` [Example 6-1, (S)-3-[(S)-1-(2-Fluorophenoxy)-2-methylpropyl]pyrrolidine], the figures for the inhibition constant Ki in test [1] and in test [2] were no more than 100 nM and no more than 10 nM, respectively.
`Clc1cc(Cl)c(O[C@@H](C2CC2)[C@H]2CCNC2)cc1Cl` [Example 16-71, (S)-3-[(S)cyclopropyl-(2,4,5-trichlorophenoxy)methyl]pyrrolidine]: the figures for the Ki in test [1] and in test [2] were no more than 10 nM and no more than 100 nM, respectively.
Consider `CC(C)[C@@H](Oc1c(Cl)cccc1Cl)[C@H]1CCNC1` [Example 6-29, (S)-3-[(R)-1-(2,6-Dichlorophenoxy)-2-methylpropyl]pyrrolidine], for which the inhibitory constant (Ki) in test [1] and in test [2] was no more than 100 nM throughout.
With `C#CC(Oc1ccc(Cl)cc1C)[C@H]1CCNC1` (stereo partly drawn) [Example 27-2, (S)-3-[1-(4-Chloro-2-methylphenoxy)prop-2-ynyl]pyrrolidine], the Ki is no more than 10 nM in test [1] and no more than 100 nM in test [2].
Take `CCCC[C@@H](Oc1cccc(Cl)c1Cl)[C@H]1CCNC1` [Example 8-6, (S)-3-[(R)-1-(2,3-Dichlorophenoxy)pentyl]pyrrolidine]: the inhibition constant (Ki) in test [1] and in test [2] was no more than 10 nM in each case.
Regarding `CC(C)C(Oc1cc(Cl)cc(Cl)c1)C1CCNC1` (stereo not drawn) [Example 6-67, 3-[1(3,5-Dichlorophenoxy)-2-methylpropyl]pyrrolidine], the results for the Ki in test [1] and in test [2] were no more than 10 nM and no more than 100 nM, respectively.
Take `Cc1ccc(Cl)c(O[C@@H](C2CC2)[C@H]2CCNC2)c1F` [Example 16-68, (S)-3-[(S)-(6-Chloro-2-fluoro-3-methylphenoxy)cyclopropylmethyl]pyrrolidine]: the Ki is no more than 100 nM in test [1] and no more than 10 nM in test [2].
